Results on six compounds are retold here after ChEMBL document CHEMBL2311510, “A new single-photon emission computed tomography (SPECT) imaging agent for serotonin transporters: [(125)I]Flip-IDAM, (2-((2-((dimethylamino)methyl)-4-iodophenyl)thio)phenyl)methanol” (Bioorg Med Chem Lett, 2013).

The target of data set [1] is T1, Sodium-dependent serotonin transporter (Homo sapiens, UniProt P31645). Put plainly: Binding affinity to SERT (unknown origin).
Target sequence in this assay (P31645 whole entry): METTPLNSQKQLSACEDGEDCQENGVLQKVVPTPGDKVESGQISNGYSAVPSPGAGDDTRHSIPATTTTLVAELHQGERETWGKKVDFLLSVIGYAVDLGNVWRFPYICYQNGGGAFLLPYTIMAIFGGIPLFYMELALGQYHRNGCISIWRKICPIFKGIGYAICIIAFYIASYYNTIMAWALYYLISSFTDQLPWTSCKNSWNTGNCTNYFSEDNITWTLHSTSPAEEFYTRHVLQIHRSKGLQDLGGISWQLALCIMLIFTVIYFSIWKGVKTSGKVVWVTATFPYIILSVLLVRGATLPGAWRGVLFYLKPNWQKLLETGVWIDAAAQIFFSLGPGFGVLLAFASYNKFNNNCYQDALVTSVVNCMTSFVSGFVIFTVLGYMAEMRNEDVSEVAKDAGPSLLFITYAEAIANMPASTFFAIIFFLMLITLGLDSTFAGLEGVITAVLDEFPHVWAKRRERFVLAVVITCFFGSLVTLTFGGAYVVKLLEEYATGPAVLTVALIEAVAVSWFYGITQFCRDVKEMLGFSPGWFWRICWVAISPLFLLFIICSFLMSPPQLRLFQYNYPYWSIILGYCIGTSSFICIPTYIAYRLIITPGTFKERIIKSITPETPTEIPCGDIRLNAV
Data set [2] deals with T1, Sodium-dependent serotonin transporter. Put plainly: Inhibition of […] uptake at SERT (unknown origin) expressed in LLC-PK1 cell membranes. Format: cell-based.
Target sequence in this assay (P31645 whole entry): as above
A further data set relates to Nucleic Acid. Put plainly: Ratio of drug level in hypothalamus to cerebellum in rat measured 60 mins compound dose. Format: ADME, tissue-based. As to conditions: in vivo, 1 h.
Data set [3] deals with T1, Sodium-dependent serotonin transporter. Put plainly: biochemical. Format: cell-based, LLC-PK1.
Target sequence in this assay (P31645 whole entry): as above
Description: Inhibition of [125I]IDAM uptake at SERT (unknown origin) expressed in LLC-PK1 cell membranes
The target is the same in data set [4]. Put plainly: Potency index, ratio of Ki of IDAM to Ki of compound for SERT (unknown origin).
Target sequence in this assay (P31645 whole entry, looked up): as the sequence (P31645 whole entry) above
Data set [5] shares this target. Put plainly: Potency index, ratio of Ki of Flip-ADAM to Ki of compound for SERT (unknown origin).
Target sequence in this assay (P31645 whole entry, looked up): as the sequence (P31645 whole entry) above

`O=C(OCCF)[C@H]1[C@@H](c2ccc(/C=C\I)cc2)C[C@H]2CC[C@H]1N2`: the Ki in data set [1] is 0.08 nM.

Regarding `CN(C)Cc1ccccc1Sc1ccc(I)cc1CO`, the Ki in data set [2] is 0.1 nM. In other words, the sub-nanomolar range.

With `CN(C)Cc1ccccc1Sc1ccc([123I])cc1CO`, the Ratio in the data set on Nucleic Acid came to 2.76. Besides, in data set [1], the affinity corresponds to a Ki of 0.097 nM.

For `CN(C)Cc1cc(I)ccc1Sc1ccccc1N`, in data set [3], the Ki came out at 1 nM.

In turn, `CN(C)Cc1cc(I)ccc1Sc1ccccc1CO` displayed a Ki in data set [3] of 0.03 nM. Further, the Ratio Ki is 3 in data set [4] and 33 in data set [5].

Consider `CN(C)Cc1ccccc1Sc1ccc([123I])cc1N`, for which the affinity in data set [1], expressed as Ki, was 0.013 nM.

Usually Ki stands for the equilibrium dissociation constant of an inhibitor or competing ligand from its target.
